For assay [1], the target named is T1, Adenosine receptor A3 (Homo sapiens) (UniProt P0DMS8).
T1 sequence (whole entry): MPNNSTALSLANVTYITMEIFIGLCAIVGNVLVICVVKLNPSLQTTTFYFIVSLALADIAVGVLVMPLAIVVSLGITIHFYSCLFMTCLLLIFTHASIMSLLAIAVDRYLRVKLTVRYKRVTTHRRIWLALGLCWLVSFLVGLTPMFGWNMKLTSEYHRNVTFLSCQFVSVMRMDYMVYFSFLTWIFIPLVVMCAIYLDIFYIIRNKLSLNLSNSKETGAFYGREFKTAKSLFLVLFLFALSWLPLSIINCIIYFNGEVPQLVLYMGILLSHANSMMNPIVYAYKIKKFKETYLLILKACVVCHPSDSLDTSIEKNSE
Put plainly: Antagonist activity at human A3 adenosine receptor transfected in HEK293 cell membranes assessed as rightward shift in 5-(2-chloro-6-((3-iodobenzyl)amino)-9H-purin-9-yl)-3,4-dihydroxy-N-methyltetrahydrofuran-2-carboxamide activation curve at 10 uM pretreated for 1 hr followed by agonist addition and measured after 2 hrs by liquid scintillation counting method. It is filed as functional. To be noted: Membrane, time 3.0 hrs.

The target of assay [2] is T2, Adenosine receptor A3 (Mus musculus) (UniProt Q61618).
T2 sequence (whole entry): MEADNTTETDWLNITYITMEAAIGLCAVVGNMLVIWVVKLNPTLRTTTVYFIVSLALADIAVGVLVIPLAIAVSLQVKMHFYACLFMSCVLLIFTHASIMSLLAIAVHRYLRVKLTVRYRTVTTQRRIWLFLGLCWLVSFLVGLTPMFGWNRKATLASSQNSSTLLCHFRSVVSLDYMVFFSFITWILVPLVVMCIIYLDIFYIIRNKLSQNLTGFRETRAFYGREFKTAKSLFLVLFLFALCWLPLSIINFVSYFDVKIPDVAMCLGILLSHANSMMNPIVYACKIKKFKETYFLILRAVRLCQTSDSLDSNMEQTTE
Put plainly: Positive allosteric modulation of full length mouse A3 adenosine receptor transfected in HEK293 cell membranes assessed as slow down of [125I]I-AB-MECA dissociation rate at 10 uM preincubated with radioligand for 3 hrs followed by NECA and compound addition and measured upto 180 mins by gamma counter method. To be noted: Membrane, filed as positive allosteric modulator.

Assay [3] has as its target T1, Adenosine receptor A3 (Homo sapiens). Put plainly: Positive allosteric modulation of human A3 adenosine receptor transfected in HEK293 cell membranes assessed as slow down of [125I]I-AB-MECA dissociation rate at 10 uM preincubated with radioligand for 3 hrs followed by NECA and compound addition and measured after 60 mins by gamma counter method. The conditions noted are these: Membrane, filed as positive allosteric modulator.

For assay [4] the target is unchanged. Kind of assay: Antagonist activity at human A3 adenosine receptor transfected in HEK293 cell membranes assessed as rightward shift in 5-(2-chloro-6-((3-iodobenzyl)amino)-9H-purin-9-yl)-3,4-dihydroxy-N-methyltetrahydrofuran-2-carboxamide activation curve pretreated for 1 hr followed by agonist addition and measured after 2 hrs by liquid scintillation counting method. It is filed as functional. The conditions noted are these: Membrane, filed as antagonist, time 3.0 hrs.

The target in assay [5] is T2, Adenosine receptor A3 (Mus musculus). Kind of assay: Orthosteric antagonist activity at full length mouse A3 adenosine receptor transfected in HEK293 cell membranes assessed as inhibition of [125I]I-AB-MECA binding at equilibrium at 10 uM by gamma counter method. The conditions noted are these: Membrane, filed as antagonist.
The target of assay [6] is T1, Adenosine receptor A3 (Homo sapiens). Kind of assay: Positive allosteric modulation of human A3 adenosine receptor transfected in HEK293 cell membranes assessed as potentiation of 5-(2-chloro-6-((3-iodobenzyl)amino)-9H-purin-9-yl)-3,4-dihydroxy-N-methyltetrahydrofuran-2-carboxamide induced [35S]GTP-gammaS binding by measuring fold increase in agonist …. The conditions noted are these: Membrane, filed as positive allosteric modulator, dose 1.0 µM, time 3.0 hrs.

For assay [7], the target named is Alpha-1A adrenergic receptor (Homo sapiens) (UniProt P35348). Put plainly: Binding affinity to alpha1A adrenergic receptor (unknown origin).
Sequence of Alpha-1A adrenergic receptor (Homo sapiens) (P35348 whole entry): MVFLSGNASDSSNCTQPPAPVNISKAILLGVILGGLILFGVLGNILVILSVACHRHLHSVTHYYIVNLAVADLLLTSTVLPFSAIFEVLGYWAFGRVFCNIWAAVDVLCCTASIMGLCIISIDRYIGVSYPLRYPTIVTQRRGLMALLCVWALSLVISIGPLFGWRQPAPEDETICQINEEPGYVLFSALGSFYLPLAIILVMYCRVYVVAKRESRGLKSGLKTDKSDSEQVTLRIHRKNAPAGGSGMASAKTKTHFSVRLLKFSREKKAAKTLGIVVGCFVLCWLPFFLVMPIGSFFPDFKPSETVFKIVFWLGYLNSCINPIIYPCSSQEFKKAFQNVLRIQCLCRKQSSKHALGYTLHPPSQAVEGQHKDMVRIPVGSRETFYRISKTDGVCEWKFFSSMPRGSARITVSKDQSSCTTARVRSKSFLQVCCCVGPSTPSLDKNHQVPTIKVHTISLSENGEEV
Assay [8] concerns the target Histamine H2 receptor (Homo sapiens) (UniProt P25021). Kind of assay: Binding affinity to histamine H2 receptor (unknown origin).
Assay [9] concerns the target Muscarinic acetylcholine receptor M4 (Homo sapiens) (UniProt P08173). Kind of assay: Binding affinity to M4 receptor (unknown origin).
For assay [10], the target named is D(2) dopamine receptor (Homo sapiens) (UniProt P14416). Kind of assay: Binding affinity to D2 receptor (unknown origin).
The species entered for assay [11] is Homo sapiens. Put plainly: Binding affinity to BZP receptor (unknown origin).
Assay [12] concerns the target Beta-3 adrenergic receptor (Homo sapiens) (UniProt P13945). Kind of assay: Binding affinity to beta3 adrenergic receptor (unknown origin).
The target of assay [13] is Kappa-type opioid receptor (Homo sapiens) (UniProt P41145). Kind of assay: Binding affinity to KOR (unknown origin).
Sequence of Kappa-type opioid receptor (Homo sapiens) (P41145 whole entry): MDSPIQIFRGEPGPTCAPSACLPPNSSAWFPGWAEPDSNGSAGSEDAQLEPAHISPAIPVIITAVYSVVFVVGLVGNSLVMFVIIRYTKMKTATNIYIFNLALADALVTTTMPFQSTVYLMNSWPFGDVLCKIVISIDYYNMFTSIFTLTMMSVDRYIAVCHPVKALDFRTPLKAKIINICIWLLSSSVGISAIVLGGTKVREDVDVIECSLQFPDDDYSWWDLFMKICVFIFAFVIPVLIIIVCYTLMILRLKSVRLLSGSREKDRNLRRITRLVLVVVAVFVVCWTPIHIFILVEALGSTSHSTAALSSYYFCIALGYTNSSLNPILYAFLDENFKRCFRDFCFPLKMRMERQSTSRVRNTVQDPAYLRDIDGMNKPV
Assay [14] addresses D(1A) dopamine receptor (Homo sapiens) (UniProt P21728). Put plainly: Binding affinity to D1 receptor (unknown origin).
Assay [15] has as its target 5-hydroxytryptamine receptor 3A (Homo sapiens) (UniProt P46098). Kind of assay: Binding affinity to 5-HT3 (unknown origin).
The target in assay [16] is Alpha-1D adrenergic receptor (Homo sapiens) (UniProt P25100). Put plainly: Binding affinity to alpha1D adrenergic receptor (unknown origin).
Sequence of Alpha-1D adrenergic receptor (Homo sapiens) (P25100 whole entry): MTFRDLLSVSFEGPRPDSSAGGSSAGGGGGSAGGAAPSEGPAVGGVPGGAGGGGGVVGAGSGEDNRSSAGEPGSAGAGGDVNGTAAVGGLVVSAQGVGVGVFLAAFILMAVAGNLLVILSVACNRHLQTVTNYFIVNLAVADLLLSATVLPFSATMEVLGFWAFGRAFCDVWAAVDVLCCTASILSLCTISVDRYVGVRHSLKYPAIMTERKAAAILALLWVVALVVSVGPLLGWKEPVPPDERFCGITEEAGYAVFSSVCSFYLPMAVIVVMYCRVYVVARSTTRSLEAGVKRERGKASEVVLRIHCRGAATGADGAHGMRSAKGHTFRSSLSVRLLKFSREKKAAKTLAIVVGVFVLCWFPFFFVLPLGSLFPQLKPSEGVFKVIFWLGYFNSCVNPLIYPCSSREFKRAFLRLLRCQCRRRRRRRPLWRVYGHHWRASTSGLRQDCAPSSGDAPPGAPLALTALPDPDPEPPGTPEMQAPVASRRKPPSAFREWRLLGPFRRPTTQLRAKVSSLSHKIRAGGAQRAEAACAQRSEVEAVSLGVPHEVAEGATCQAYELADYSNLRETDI
The target of assay [17] is GABA-A receptor; anion channel (Homo sapiens) (UniProt P14867+P47870+P18507+P28472+P48169+Q99928+Q9UN88+P34903+O00591+O14764+Q8N1C3+P18505+P78334+P47869+P31644+Q16445). Put plainly: Binding affinity to GABA-A receptor (unknown origin). In kind it is protein-complex assay.
Assay [18] concerns the target Muscarinic acetylcholine receptor M2 (Homo sapiens) (UniProt P08172). Kind of assay: Binding affinity to M2 receptor (unknown origin).
The target in assay [19] is Muscarinic acetylcholine receptor M1 (Homo sapiens) (UniProt P11229). Kind of assay: Binding affinity to M1 receptor (unknown origin).
Sequence of Muscarinic acetylcholine receptor M1 (Homo sapiens) (P11229 whole entry): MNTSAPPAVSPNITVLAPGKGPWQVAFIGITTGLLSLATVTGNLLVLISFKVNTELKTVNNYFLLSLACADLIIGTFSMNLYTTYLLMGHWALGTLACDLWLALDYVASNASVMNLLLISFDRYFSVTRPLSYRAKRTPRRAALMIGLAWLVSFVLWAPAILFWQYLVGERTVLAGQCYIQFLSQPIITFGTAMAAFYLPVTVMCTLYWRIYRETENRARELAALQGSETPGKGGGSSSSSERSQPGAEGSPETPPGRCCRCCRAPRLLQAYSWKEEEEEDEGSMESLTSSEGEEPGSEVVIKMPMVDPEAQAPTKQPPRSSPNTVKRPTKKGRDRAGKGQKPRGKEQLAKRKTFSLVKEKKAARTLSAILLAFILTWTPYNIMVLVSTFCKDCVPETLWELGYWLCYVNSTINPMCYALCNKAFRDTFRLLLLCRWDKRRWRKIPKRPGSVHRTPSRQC
The target of assay [20] is 5-hydroxytryptamine receptor 5A (Homo sapiens) (UniProt P47898). Put plainly: Binding affinity to 5-HT5A (unknown origin).
Sequence of 5-hydroxytryptamine receptor 5A (Homo sapiens) (P47898 whole entry): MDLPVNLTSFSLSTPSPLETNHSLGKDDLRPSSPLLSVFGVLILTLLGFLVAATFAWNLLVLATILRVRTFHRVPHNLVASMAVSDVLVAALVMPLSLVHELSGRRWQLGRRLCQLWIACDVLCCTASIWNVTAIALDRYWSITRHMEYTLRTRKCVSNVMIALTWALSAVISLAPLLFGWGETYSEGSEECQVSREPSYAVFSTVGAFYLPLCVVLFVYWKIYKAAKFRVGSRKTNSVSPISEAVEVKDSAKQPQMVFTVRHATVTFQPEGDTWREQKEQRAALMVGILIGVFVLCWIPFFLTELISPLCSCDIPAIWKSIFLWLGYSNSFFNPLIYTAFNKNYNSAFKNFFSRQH
Assay [21] deals with Mu-type opioid receptor (Homo sapiens) (UniProt P35372). Put plainly: Binding affinity to MOR (unknown origin).
Assay [22] concerns the target Beta-2 adrenergic receptor (Homo sapiens) (UniProt P07550). Kind of assay: Binding affinity to beta2 adrenergic receptor (unknown origin).
Assay [23] deals with 5-hydroxytryptamine receptor 1E (Homo sapiens) (UniProt P28566). Put plainly: Binding affinity to 5-HT1E (unknown origin).
Sequence of 5-hydroxytryptamine receptor 1E (Homo sapiens) (P28566 whole entry): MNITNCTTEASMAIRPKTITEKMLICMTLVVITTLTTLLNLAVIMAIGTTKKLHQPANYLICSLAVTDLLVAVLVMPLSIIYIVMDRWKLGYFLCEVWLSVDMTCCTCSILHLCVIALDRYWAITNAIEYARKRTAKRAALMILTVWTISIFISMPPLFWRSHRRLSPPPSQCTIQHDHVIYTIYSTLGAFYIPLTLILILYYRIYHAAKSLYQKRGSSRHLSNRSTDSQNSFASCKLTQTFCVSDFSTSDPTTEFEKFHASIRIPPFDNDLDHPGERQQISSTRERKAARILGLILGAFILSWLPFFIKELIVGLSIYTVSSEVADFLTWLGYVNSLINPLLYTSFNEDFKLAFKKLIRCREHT
For assay [24], the target named is Delta-type opioid receptor (Homo sapiens) (UniProt P41143). Put plainly: Binding affinity to DOR (unknown origin).
Assay [25] has as its target T1, Adenosine receptor A3 (Homo sapiens). Put plainly: Orthosteric antagonist activity at human A3 adenosine receptor transfected in HEK293 cell membranes assessed as inhibition of [125I]I-AB-MECA binding at equilibrium at 10 uM measured for 18 hrs by gamma counter method. The conditions noted are these: Membrane, filed as antagonist.

The source made the active and inactive calls. The rule behind the calls is not given here.

Sequence of Muscarinic acetylcholine receptor M2 (Homo sapiens) (P08172 whole entry): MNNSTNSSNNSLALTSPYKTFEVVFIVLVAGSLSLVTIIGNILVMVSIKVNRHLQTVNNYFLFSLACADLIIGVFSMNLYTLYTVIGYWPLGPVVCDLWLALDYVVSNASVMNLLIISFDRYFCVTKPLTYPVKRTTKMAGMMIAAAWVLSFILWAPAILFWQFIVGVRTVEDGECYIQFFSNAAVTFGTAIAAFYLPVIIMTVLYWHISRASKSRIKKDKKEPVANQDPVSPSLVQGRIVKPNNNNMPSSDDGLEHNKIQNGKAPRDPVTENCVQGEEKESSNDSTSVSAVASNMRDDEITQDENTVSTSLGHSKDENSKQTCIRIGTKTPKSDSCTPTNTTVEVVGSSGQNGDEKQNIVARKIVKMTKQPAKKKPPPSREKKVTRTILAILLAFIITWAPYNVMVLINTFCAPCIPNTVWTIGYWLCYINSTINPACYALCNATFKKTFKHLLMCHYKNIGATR
Sequence of D(1A) dopamine receptor (Homo sapiens) (P21728 whole entry): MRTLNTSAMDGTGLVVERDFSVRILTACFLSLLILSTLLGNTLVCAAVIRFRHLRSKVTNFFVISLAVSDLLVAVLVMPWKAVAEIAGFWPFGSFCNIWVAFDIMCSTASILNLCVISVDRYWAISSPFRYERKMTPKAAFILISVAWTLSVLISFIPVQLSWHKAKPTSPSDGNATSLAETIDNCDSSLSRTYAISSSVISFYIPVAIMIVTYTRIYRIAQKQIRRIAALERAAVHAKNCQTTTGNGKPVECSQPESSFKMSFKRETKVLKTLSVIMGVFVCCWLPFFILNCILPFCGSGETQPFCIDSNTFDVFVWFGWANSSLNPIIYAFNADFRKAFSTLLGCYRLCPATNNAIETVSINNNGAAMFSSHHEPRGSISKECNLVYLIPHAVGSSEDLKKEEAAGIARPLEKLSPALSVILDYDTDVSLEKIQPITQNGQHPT
Sequence of Muscarinic acetylcholine receptor M4 (Homo sapiens) (P08173 whole entry): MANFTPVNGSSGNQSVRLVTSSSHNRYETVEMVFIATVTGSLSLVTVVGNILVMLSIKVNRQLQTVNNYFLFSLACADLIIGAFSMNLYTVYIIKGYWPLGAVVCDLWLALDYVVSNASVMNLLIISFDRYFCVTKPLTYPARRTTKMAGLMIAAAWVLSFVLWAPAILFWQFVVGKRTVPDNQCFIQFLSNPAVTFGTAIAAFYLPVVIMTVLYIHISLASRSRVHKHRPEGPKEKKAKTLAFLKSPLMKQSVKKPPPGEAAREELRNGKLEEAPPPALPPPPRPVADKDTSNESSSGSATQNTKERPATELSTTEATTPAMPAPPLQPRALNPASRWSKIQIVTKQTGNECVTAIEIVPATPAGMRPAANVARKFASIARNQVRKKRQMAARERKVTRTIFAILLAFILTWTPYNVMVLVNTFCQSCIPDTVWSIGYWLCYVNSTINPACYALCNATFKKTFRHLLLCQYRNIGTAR
Sequence of Histamine H2 receptor (Homo sapiens) (P25021 whole entry): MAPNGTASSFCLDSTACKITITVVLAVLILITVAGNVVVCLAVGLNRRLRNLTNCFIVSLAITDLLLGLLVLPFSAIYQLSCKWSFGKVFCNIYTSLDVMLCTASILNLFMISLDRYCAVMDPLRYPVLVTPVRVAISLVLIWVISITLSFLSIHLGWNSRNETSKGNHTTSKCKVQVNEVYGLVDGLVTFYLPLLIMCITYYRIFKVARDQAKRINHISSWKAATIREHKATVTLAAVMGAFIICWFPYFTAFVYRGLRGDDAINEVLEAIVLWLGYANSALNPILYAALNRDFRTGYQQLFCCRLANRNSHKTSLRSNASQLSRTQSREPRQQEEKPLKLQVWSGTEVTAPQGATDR
Sequence of Beta-2 adrenergic receptor (Homo sapiens) (P07550 whole entry, looked up): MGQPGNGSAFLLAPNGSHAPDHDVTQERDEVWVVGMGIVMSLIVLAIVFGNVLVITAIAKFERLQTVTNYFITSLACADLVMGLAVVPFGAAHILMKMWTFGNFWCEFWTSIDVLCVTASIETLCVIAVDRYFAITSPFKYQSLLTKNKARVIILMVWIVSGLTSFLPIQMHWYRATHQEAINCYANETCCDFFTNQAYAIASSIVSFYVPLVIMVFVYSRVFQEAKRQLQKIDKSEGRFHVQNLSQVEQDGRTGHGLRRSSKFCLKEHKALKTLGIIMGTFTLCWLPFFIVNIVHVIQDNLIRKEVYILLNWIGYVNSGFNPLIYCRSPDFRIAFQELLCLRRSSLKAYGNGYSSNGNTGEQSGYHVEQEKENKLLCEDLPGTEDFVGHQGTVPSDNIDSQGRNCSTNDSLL

In the case of `Clc1ccc(Nc2nc3ccccc3c3sc(C4CCCCC4)nc23)cc1Cl`, in assay [1], the outcome was inactive.

As to `CCCC(CCC)c1nc2c(Nc3ccc(I)cc3)nc3ccccc3c2[nH]1`, the result in assay [2] was Active.

Regarding `Clc1ccc(Nc2nc3ccccc3c3nc(C4CCCCC4)sc23)cc1Cl`, the outcome in assay [3] and in assay [4] was Active.

Take `CCCC(CCC)c1nc2c(Nc3ccc(C#CCCCCCN)cc3)nc3ccccc3c2[nH]1`: the result in [2] and in assay [5] was Active.

Take `CCCC(CCC)c1nc2c(Nc3ccc(C#CCN)cc3)nc3ccccc3c2[nH]1`: the outcome in assay [2] was Active.

Regarding `CCCC(CCC)c1nc2c(Nc3ccc(C#CCCCCCCN)cc3)nc3ccccc3c2[nH]1`, the result in assay [2] and in assay [5] was Active.

On to `CCCC(CCC)c1nc2c(Nc3cccc(C#CCCCCCCCCN)c3)nc3ccccc3c2[nH]1`, for which the result in assay [2] was Active.

`CCCC(CCC)c1nc2c(Nc3ccc(C#CCCCCCCCCNCCCCN)cc3)nc3ccccc3c2[nH]1`: the fold change (FC) in assay [6] was determined as 12.

For `CCCC(CCC)c1nc2c(Nc3ccc(C#CCCCCN)cc3)nc3ccccc3c2[nH]1`, the outcome in assay [2] and in [5] was Active.

In the case of `CCCC(CCC)c1nc2c(Nc3ccc(C#CCCCCCCCCCN)cc3)nc3ccccc3c2[nH]1`, the result in assay [7], in assay [8], in assay [9], in assay [10], in [11] and in assay [12] was inactive. In addition, the outcome in assay [13], in [14], in assay [15], in assay [16], in assay [17] and in assay [18] was inactive. Also, the result in [19], in assay [20], in [21], in assay [22], in assay [23] and in [24] was inactive. Moreover, the result in assay [2] and in assay [5] was Active. For the same compound, the fold change (FC) in assay [6] worked out at 4.

In the case of `CCCC(CCC)c1nc2c(Nc3ccc(C#CCCCCCCCCN(C)C)cc3)nc3ccccc3c2[nH]1`, the fold change (FC) in assay [6] was 4.

For `CCCC(CCC)c1nc2c(Nc3ccc(/C=C/C(=O)NCCCCCCCCN)cc3)nc3ccccc3c2[nH]1`, the outcome in [3] and in assay [25] was Active.

As to `CCCC(CCC)c1nc2c(Nc3ccc(C#CCCCN)cc3)nc3ccccc3c2[nH]1`, the outcome in [2] was Active.

Consider `Clc1ccc(Sc2nc3ccccc3c3[nH]c(C4CCCCC4)nc23)cc1Cl`, for which the result in [3] and in assay [25] was Active.

Turning to `CCCC(CCC)c1nc2c(Nc3ccc(C#CCCN)cc3)nc3ccccc3c2[nH]1`, the result in [2] was Active.

As to `CCCC(CCC)c1nc2c(Nc3ccc(C#CCCCCCCCCCN4CCCC4)cc3)nc3ccccc3c2[nH]1`, the fold change (FC) in assay [6] turned out to be 4.

In the case of `CCCC(CCC)c1nc2c(Nc3ccc(C#CCCCCCCCN)cc3)nc3ccccc3c2[nH]1`, the outcome in [2] and in assay [5] was Active. Also, the fold change (FC) in assay [6] worked out at 7.4.

`CCCC(CCC)c1nc2c(Nc3ccc(I)cc3)nc3ccccc3c2n1Cc1ccccc1`: in [25], the result was Active. Further, the fold change (FC) in [6] is 2.5.

For `CCCC(CCC)c1nc2c(Nc3ccc(C#CCCCCCCCCN=C(N)N)cc3)nc3ccccc3c2[nH]1`, the fold change (FC) in assay [6] was 9.5.

`CCCC(CCC)c1nc2c(Oc3ccc(Cl)c(Cl)c3)nc3ccccc3c2[nH]1`: the outcome in assay [3] and in [25] was Active.

For `Clc1ccc(Nc2nc3ccccc3c3nc(C4CCCCC4)oc23)cc1Cl`, the result in assay [25] and in assay [4] was Active.

In the case of `CCCC(CCC)c1nc2c(Nc3ccc(/C=C/CCCCCCCCN)cc3)nc3ccccc3c2[nH]1`, the fold change (FC) in assay [6] was determined as 2.5.

On to `CCCC(CCC)c1nc2c(Oc3ccccc3)nc3ccccc3c2[nH]1`, for which the outcome in assay [3] and in assay [25] was Active.

Regarding `CCCC(CCC)c1nc2c([nH]1)c(Nc1ccc(C#CCCCCCCCCCCN)cc1)nc1ccccc12`, the result in [2] and in [5] was Active. Further, the fold change (FC) in assay [6] stood at 2.5.

With `CN(c1ccc(Cl)c(Cl)c1)c1nc2ccccc2c2[nH]c(C3CCCCC3)nc12`, the result in [3] was Active.

Take `Clc1ccc(Oc2nc3ccccc3c3[nH]c(C4CCCCC4)nc23)cc1Cl`: the result in assay [3] and in [25] was Active.

Consider `CCCC(CCC)c1nc2c(Sc3ccc(Cl)c(Cl)c3)nc3ccccc3c2[nH]1`, for which the outcome in [3] and in assay [25] was Active.

Take `OCCn1c(C2CCCCC2)nc2c(Nc3ccc(Cl)c(Cl)c3)nc3ccccc3c21`: the result in [25] was Active.

Turning to `CCCC(CCC)c1nc2c(Nc3ccc(C#CCCCCCCCCCN4CCCCC4)cc3)nc3ccccc3c2[nH]1`, the fold change (FC) in [6] is 4.

(Values after ChEMBL document CHEMBL5523738, “Lipid Trolling to Optimize A3 Adenosine Receptor-Positive Allosteric Modulators (PAMs)” (J Med Chem, 2024).)
